In article PMC12062775, “Shifting the substrate scope of dimeric pyranose oxidase from monosaccharide to glycoside preference through oligomeric state modification” (The Febs Journal, 2025):

Legend:
KaPOx_xal = tested on: T1, KaPOx_xal; assay: Amplex Red / horseradish peroxidase coupled oxidase assay, steady state; assay type: biochemical, Kitasatospora aureofaciens; conditions: air O2 ~250 μM, 50 mM Tris/HCl pH 7.5, 30 °C; read-out: [drawing 2] Phlorizin / K m/mM
T1 construct: gene KaPOx; KaPOx with arm domain and oligomerization loop replaced by ScPOx insertion-1 domain and flexible loop; C-terminal His6; pET-21a(+), E. coli T7 Express
Text: Amplex Red / horseradish peroxidase coupled oxidase assay, steady state on KaPOx_xal

KaPOx_xalh = tested on: T2, KaPOx_xalh; assay: as above; assay type: biochemical, Kitasatospora aureofaciens; conditions: air O2 ~250 μM, 50 mM Tris/HCl pH 7.5, 30 °C; read-out: [drawing 2] Phlorizin / K m/mM
T2 construct: gene KaPOx; C-terminal His6; pET-21a(+), E. coli T7 Express
Text: Amplex Red / horseradish peroxidase coupled oxidase assay, steady state on KaPOx_xalh

Q: How did the Km (KaPOx_xal) turn out when `O=C(CCc1ccc(O)cc1)c1c(O)cc(O)cc1O[C@@H]1O[C@H](CO)[C@@H](O)[C@H](O)[C@H]1O` [Phlorizin] was run?
A: 0.015 ± 0.002 mM

Q: And the Km (KaPOx_xalh)?
A: 0.019 ± 0.003 mM
